Columns and labels:
VH125.NOD mice = assay: T1D disease progression in VH125.NOD mice on idelalisib chow; assay type: in vivo, mouse; conditions: female VH125.NOD mice, vs vehicle control chow
Description: Except where otherwise indicated, 6-16 week old mice were used in all experiments. Both male and female mice were used, but experiments were sex matched and both sexes gave identical results, with the exception of only female mice being used in the VH125.NOD experiments as female mice develop accelerated disease. hCD20-TamCre animals (Khalil, et al. Science 336: 1178-81) were intercrossed with mice carrying the rosa26-flox-STOP-YFP allele (Srinivas, et al., BMC Dev. Biol. 1:4), generating mice in which YFP is expressed in B cells upon Cre activation. These mice were crossed with Ars/A1 (Benschop, et al., Immunity 14: 33-43) transgenic mice to generate hCD20-TamCre×rosa26-flox-STOP-YFP×Ars/A1 mice. B cells from these mice will be referred to as WT Ars/A1. […]
Diet dose (DD) is calculated by multiplying the single daily dose (SD) by the body weight of a mouse (BW) and dividing that by the daily food intake (FI) [DD=(SD×BW)/FI]. […]
To test this possibility, immediately post-weaning, female VH125.NOD mice were placed on vehicle control chow to allow habituation to the diet. […] Disease progression was monitored based on blood glucose levels and visible signs of disease (i.e., hunching, scruffy fur, excessive urination).

[1] = test system: PTEN^−/+×SHIP-1^−/+ B cells; assay: adoptive transfer of autoreactive PTEN-/+ x SHIP-1-/+ Ars/A1 B cells, loss of anergy; assay type: in vivo, mouse; conditions: for number of autoreactive ASCs/spleen: day 14
Description: (§1) Except where otherwise indicated, 6-16 week old mice were used in all experiments. Both male and female mice were used, but experiments were sex matched and both sexes gave identical results, with the exception of only female mice being used in the VH125.NOD experiments as female mice develop accelerated disease. hCD20-TamCre animals (Khalil, et al. Science 336: 1178-81) were intercrossed with mice carrying the rosa26-flox-STOP-YFP allele (Srinivas, et al., BMC Dev. Biol. 1:4), generating mice in which YFP is expressed in B cells upon Cre activation. These mice were crossed with Ars/A1 (Benschop, et al., Immunity 14: 33-43) transgenic mice to generate hCD20-TamCre×rosa26-flox-STOP-YFP×Ars/A1 mice. B cells from these mice will be referred to as WT Ars/A1. These mice were also crossed with SHIP-1^flox/flox mice (Karlsson, et al. J Exp Med 198: 333-40). hCD20-TamCre×rosa26-flox-STOP-YFP×Ars/A1 mice were also crossed to PTEN^flox/flox mice (Anzelon, et al., Nat Immunol 4: 287-94) and SHP-1^flox/flox mice to generate mice in which SHIP-1, PTEN and SHP-1 deletion can be induced in anergic B cells. hCD20-TamCre×rosa26-flox-STOP-YFP×PTEN^flox/flox×Ars/A1 were crossed to hCD20-TamCre×rosa26-flox-STOP-YFP×SHIP-1^flox/flox×Ars/A1 to generate hCD20-TamCre×rosa26-flox-STOP-YFPx PTEN^flox/wt×SHIP-1^flox/wt×Ars/A1 to allow for the double haploinsufficiency of both PTEN and SHIP-1 within B cells.
(§2) 2 hours before adoptive transfer, C57BL/6 recipient mice received 200 rads irradiation. […] B cells from donor mice were isolated via depletion of CD43+ cells with anti-CD43-conjugated magnetic beads (MACS anti-mouse CD43; Miltenyi Biotec). Alternatively, CD4+ T cells were isolated via CD4 positive selection (MACS anti-mouse CD4 (L3T4) Miltenyi Biotec). Resultant populations were >97% pure based on flow cytometric analyses. Donor B cells were labeled with either CellTrace Violet (Molecular Probes) or CFSE (Molecular Probes) at 5 μM for 5 minutes at room temperature prior to transfer. Donor CD4 T cells were labeled with CFSE (Molecular Probes) at 5 μM for 5 minutes at room temperature prior to transfer. 1-2×10^6 donor cells in 200 μl PBS were adoptively transferred via IV injection. 24 hours post transfer, tamoxifen was administered to activate Cre. Tamoxifen (Sigma-Aldrich) was dissolved in 100% corn oil (Sigma-Aldrich) at 20 mg/ml. Recipient mice were injected IP with 100 μl (2 mg) on two consecutive days.
(§3) Diet dose (DD) is calculated by multiplying the single daily dose (SD) by the body weight of a mouse (BW) and dividing that by the daily food intake (FI) [DD=(SD×BW)/FI].
(§4) For VH125.NOD experiments animals are placed on control chow immediately after weaning.
(§5) Spleens were mechanically disrupted, single-cell suspensions were generated, and red blood cells were lysed with ammonium chloride TRIS. Cells were resuspended in PBS containing 1% FBS and incubated with indicated antibodies. For analysis of cell surface markers, antibodies against the following molecules were used: B220-PE (BioLegend), B220-BV786 (BD Biosciences), B220-BV510 (BioLegend), CD4-BV711 (BioLegend), CD8-BV421 (BioLegend), CD138-PECy7 (BioLegend), CD69-BV786 (BD Biosciences), CD86-PerCPCy5.5 (BioLegend). After cell surface staining, the cells were fixed and permeabilized with Cytofix/Cytoperm (BD) per manufacturer's instructions and stained with Dylight650-E4 anti-Ars/A1 idiotype (produced and conjugated in our laboratory) OR HEL-650 (produced and conjugated in our laboratory) and Alexa Fluor 488-anti-GFP (rabbit polyclonal; Life Technologies). Events were collected on a CyAn ADP (Dako) and subsequent analysis using FlowJo software (Tree Star).
(§6) For detection of IgM^a anti-Ars antibodies, microtiter plates were coated with 10 μg/ml Ars-BSA16 in PBS and blocked with 2 mg/ml BSA in PBS 0.05% Tween-20. For detection of IgM^a anti-HEL antibodies, microtiter plates were coated with 10 μg/ml HEL in PBS and blocked with 2 mg/ml BSA in PBS 0.05% Tween-20. […]

SHP-1^−/− B cells = assay: adoptive transfer of autoreactive SHP-1-/- Ars/A1 B cells, loss of anergy; assay type: in vivo, mouse
Description: as §1, §2, §3, §4, §5, §6

BTK = assay: phosphorylated signaling intermediaries after BCR stimulation: BTK; assay type: cell-based, mouse; conditions: all doses of inhibitor (15, 60, 490 nM), preincubation
Procedure: (§7) Cells are then washed 2× in serum free IMDM, and stimulated with 5 μg/ml of F(ab′)2 rabbit anti-mouse anti-IgG (H&L; Invitrogen) or 10 μg/ml anti-CD3-biotin (BD Biosciences)+20 μg/ml streptavidin (Sigma-Aldrich) for 2 minutes. Signaling was stopped by addition of 20% PFA to a final concentration of 2%, incubated at 37° C. for 15 minutes and resuspended in 100% ice-cold MeOH (directly from −80° C.). Cells were then placed on ice for 30 minutes and placed at −20° C. for storage. For analysis, cells were stained with B220-BV786, CD4-BV711, CD8-BV421, and/or pAKT-Alexa Fluor 647 (BD Biosciences), pPLCγ-PE (BD Biosciences), pBTK-BV421 (BD Biosciences) pSyk/Zap70-PE (BD Biosciences) at room temperature for 1 hour. Cells were washed 3 times and samples were acquired in triplicate on an LSR Fortessa X-20 (BD) with analysis using FlowJo software.

PLCγ = assay: phosphorylated signaling intermediaries after BCR stimulation: PLCγ; assay type: cell-based, mouse; conditions: all doses of inhibitor (15, 60, 490 nM), preincubation
Procedure: as §7

[2] = 0.9375 mg/kg, 3.75 mg/kg and 30 mg/kg chow, relative to vehicle control chow
[3] = 0.9375 mg/kg or 3.75 mg/kg chow vs vehicle

## CC[C@H](Nc1ncnc2nc[nH]c12)c1nc2cccc(F)c2c(=O)n1-c1ccccc1 [idelalisib, 5-fluoro-3-phenyl-2-[(1S)-1-(7H-purin-6-ylamino)propyl]-4(3H)-quinazolinone]
VH125.NOD mice; 0.9375 mg/kg idelalisib chow from pre-diabetic blood glucose readings
  disease progression (blood glucose levels and visible signs of disease): significantly delayed
VH125.NOD mice; 0.9375 mg/kg idelalisib chow
  survival: extended
[1]; 0.9375 mg/kg and 3.75 mg/kg chow
  number of autoreactive ASCs/spleen: significantly reduced
[1]; 0.9375 mg/kg, 3.75 mg/kg and 30 mg/kg chow, day 14, relative to untreated controls
  serum autoantibody (IgM^a anti-Ars): significantly decreased
[1]; [2]
  plasmablast differentiation as measured by CD138 positivity: significantly decreased
  proliferation of transferred B cells: significantly decreased
[1]; 30 mg/kg chow
  number of autoreactive ASCs/spleen: undetected
[1]; day 14 post transfer, regardless of treatment
  total Ars/A1 idiotype+ YFP+ B cells in the spleens (recovery of transferred cells): no significant difference
SHP-1^−/− B cells; [3]
  differentiation of SHP-1−/− B cells (plasmablasts): equivalent amounts
  proliferation of SHP-1−/− B cells: equivalent amounts
SHP-1^−/− B cells; 30 mg/kg chow
  differentiation of SHP-1−/− B cells (plasmablasts): decreased
  proliferation of SHP-1−/− B cells: decreased
SHP-1^−/− B cells; animals receiving idelalisib-containing chow
  recovery of adoptively transferred SHP-1−/− B cells from the spleens (trend of reduced recovery): not significant
SHP-1^−/− B cells; high dose (30 mg/kg chow)
  autoimmunity (autoantibody, ASCs): blocked
SHP-1^−/− B cells; low and intermediate dose (0.9375 and 3.75 mg/kg chow)
  loss of anergy caused by SHP-1 induced deficiency (autoantibody, ASCs): no effect
BTK
  phosphorylation of BTK: significantly reduced
PLCγ
  phosphorylation of PLCγ: significantly reduced

Source: patent publication US11701361B2, “p110-delta inhibitors treat and prevent autoimmunity while sparing the ability to mount an immune response to exogenous immunogens” (THE REGENTS OF THE UNIVERSITY OF COLORADO, priority 2018, dated 2023)
